Assay results as given in patent US10167280B2, “Substituted oxopyridine derivatives” (BAYER PHARMA AKTIENGESELLSCHAFT, priority 2014, dated 2019).
pIC50: −log10 of the molar value.

How the values were obtained:
human plasma kallikrein = human plasma kallikrein (Homo sapiens (Human), UniProt P03952); test: Determination of the plasma kallikrein activity (fluorogenic peptide substrate H-Pro-Phe-Arg-AMC); type: biochemical; conditions: Table B; plasma kallikrein inhibition, 30 min at 22° C., fluorescence
Experimental: (§1) To determine the plasma kallikrein inhibition of the substances according to the invention, a biochemical test system is used which utilizes the reaction of a peptidic plasma kallikrein substrate to determine the enzymatic activity of human plasma kallikrein. Here, plasma kallikrein cleaves from the peptic plasma kallikrein substrate the C-terminal aminomethylcoumarin (AMC), the fluorescence of which is measured. The determinations are carried out in microtitre plates.
1 μl of the diluted substance solutions is placed into each of the wells of white microtitre plates from Greiner (384 wells). 20 μl of assay buffer (50 mM Tris/HCl pH 7.4; 100 mM sodium chloride solution; 5 mM of calcium chloride solution; 0.1% of bovine serum albumin) and 20 μl of plasma kallikrein from Kordia (0.6 nM in assay buffer) are then added successively. After 15 min of incubation, the enzyme reaction is started by addition of 20 μl of the substrate H-Pro-Phe-Arg-AMC dissolved in assay buffer (10 μM in assay buffer) from Bachem, the mixture is incubated at room temperature (22° C.) for 30 min and fluorescence is then measured (excitation: 360 nm, emission: 460 nm). The measured emissions of the test batches with test substance are compared to those of control batches without test substance (only dimethyl sulphoxide instead of test substance in dimethyl sulphoxide), and IC50 values are calculated from the concentration/activity relationships.

human factor XIa = human factor XIa (Homo sapiens (Human), UniProt P03951); test: Measurement of FXIa inhibition (fluorogenic peptide substrate Boc-Glu(OBzl)-Ala-Arg-AMC); type: biochemical; conditions: Table A, 30 min at 22° C., fluorescence
Experimental: as §1, with “The factor XIa” for “To determine the plasma kallikrein”, “invention is determined using” for “invention,”, “system” for “system is used”, “factor XIa” for “plasma kallikrein”, “factor XIa.” for “plasma kallikrein.”
1 μl of the diluted substance solutions is placed into each of the wells of white microtitre plates from Greiner (384 wells). […] After […] of incubation, the enzyme reaction is started by addition of 20 μl of the factor XIa substrate Boc-Glu(OBzl)-Ala-Arg-AMC dissolved in assay buffer (10 μM in assay buffer) from Bachem, the mixture is incubated at room temperature (22° C.) for 30 min and fluorescence is then measured (excitation: 360 nm, emission: 460 nm). The measured emissions of the test batches with test substance are compared to those of control batches without test substance (only dimethyl sulphoxide instead of test substance in dimethyl sulphoxide), and IC50 values are calculated from the concentration/activity relationships.

human factor XIa, sequence (P03951 388-625): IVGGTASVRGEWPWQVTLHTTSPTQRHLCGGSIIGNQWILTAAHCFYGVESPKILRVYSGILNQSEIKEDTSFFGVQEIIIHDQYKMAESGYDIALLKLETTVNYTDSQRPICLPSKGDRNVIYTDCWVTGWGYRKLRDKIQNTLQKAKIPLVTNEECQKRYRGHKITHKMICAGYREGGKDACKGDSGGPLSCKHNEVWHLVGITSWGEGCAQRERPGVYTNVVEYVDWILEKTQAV
human factor XIa, sequence (P03951 19-387 partner): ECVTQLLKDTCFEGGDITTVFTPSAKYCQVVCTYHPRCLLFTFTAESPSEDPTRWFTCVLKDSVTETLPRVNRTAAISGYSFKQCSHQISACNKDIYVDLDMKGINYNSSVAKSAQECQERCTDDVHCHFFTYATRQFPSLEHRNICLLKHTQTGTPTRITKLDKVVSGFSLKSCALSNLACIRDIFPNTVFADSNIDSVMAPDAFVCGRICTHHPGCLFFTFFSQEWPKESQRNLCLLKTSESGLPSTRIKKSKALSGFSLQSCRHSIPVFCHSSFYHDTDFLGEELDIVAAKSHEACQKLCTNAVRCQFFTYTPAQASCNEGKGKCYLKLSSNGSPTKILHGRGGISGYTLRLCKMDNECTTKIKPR
human plasma kallikrein, sequence (P03952 391-638): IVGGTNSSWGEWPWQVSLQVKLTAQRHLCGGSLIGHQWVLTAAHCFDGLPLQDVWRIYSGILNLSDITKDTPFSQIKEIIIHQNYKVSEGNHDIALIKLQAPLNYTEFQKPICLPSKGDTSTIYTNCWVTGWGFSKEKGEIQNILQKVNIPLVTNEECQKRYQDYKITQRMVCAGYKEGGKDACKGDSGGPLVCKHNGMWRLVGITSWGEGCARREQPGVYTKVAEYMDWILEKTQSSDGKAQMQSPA
human plasma kallikrein, sequence (P03952 20-390 partner): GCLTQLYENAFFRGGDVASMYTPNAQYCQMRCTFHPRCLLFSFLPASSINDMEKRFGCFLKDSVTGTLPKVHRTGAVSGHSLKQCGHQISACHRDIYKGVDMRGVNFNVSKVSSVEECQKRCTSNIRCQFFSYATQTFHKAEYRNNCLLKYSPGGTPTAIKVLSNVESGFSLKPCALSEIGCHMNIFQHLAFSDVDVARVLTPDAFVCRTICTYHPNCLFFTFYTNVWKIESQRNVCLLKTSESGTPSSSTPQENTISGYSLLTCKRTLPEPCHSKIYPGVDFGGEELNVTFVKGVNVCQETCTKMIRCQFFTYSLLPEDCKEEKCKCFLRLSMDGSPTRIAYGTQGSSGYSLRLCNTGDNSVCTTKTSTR

pIC50 (human plasma kallikrein) | pIC50 (human factor XIa) | SMILES
7.00 | 7.54 | COCCC(C(=O)Nc1ccc(C(N)=O)nc1)n1cc(Cl)c(-c2cc(Cl)ccc2C#N)cc1=O (centres unmarked) [Example 3]
6.89 | 6.80 | CNC(=O)c1ccc(NC(=O)C(Cc2ccn(C)n2)n2cc(OC)c(-c3cc(F)ccc3C#N)cc2=O)cn1 (racemic) [Example 49, 5-({2-[4-(2-Cyano-5-fluorophenyl)-5-methoxy-2-oxopyridin-1(2H)-yl]-3-(1-methyl-1H-pyrazol-3-yl)propanoyl}amino)-N-methylpyridine-2-carboxamide (racemate)]
6.60 | 6.66 | COc1cn(C(Cc2ccccn2)C(=O)Nc2ccc(C(N)=O)nc2)c(=O)cc1-c1cc(Cl)ccc1F (centres unmarked) [Example 13]
6.31 | 6.80 | N#Cc1ccc(Cl)cc1-c1cc(=O)n(C(Cc2ccccn2)C(=O)Nc2ccc(C(N)=O)nc2)cc1OC(F)F (centres unmarked) [Example 7]
7.10 | 6.70 | CNC(=O)c1ccc(NC(=O)C(Cc2ccn(C)n2)n2cc(C3CC3)c(-c3cc(Cl)ccc3C#N)cc2=O)cn1 (racemic) [Example 51, 5-({2-[4-(5-Chloro-2-cyanophenyl)-5-cyclopropyl-2-oxopyridin-1(2H)-yl]-3-(1-methyl-1H-pyrazol-3-yl)propanoyl}amino)-N-methylpyridine-2-carboxamide (racemate)]
7.28 | 7.64 | CNC(=O)c1ccc(NC(=O)C(CCOC)n2cc(Cl)c(-c3cc(Cl)ccc3C#N)cc2=O)cn1 (centres unmarked) [Example 15]
7.28 | 7.32 | COc1cn(C(Cc2cocn2)C(=O)Nc2ccc(C(N)=O)nc2)c(=O)cc1-c1cc(Cl)ccc1C#N (centres unmarked) [Example 11]
6.92 | 7.92 | CNC(=O)c1ccc(NC(=O)C(C[C@@H]2CCCCO2)n2cc(Cl)c(-c3cc(Cl)ccc3C#N)cc2=O)cn1 (some centres unmarked) [Example 5]

The next lines start with the compound.

SMILES | pIC50 (human plasma kallikrein) | pIC50 (human factor XIa)
COc1cn(C(Cc2cc(C)no2)C(=O)Nc2ccc(C(N)=O)nc2)c(=O)cc1-c1cc(Cl)ccc1F (centres unmarked) [Example 14] | 6.80 | 6.41
N#Cc1ccc(Cl)cc1-c1cc(=O)n(C(Cc2cnco2)C(=O)Nc2ccc(C(N)=O)nc2)cc1Cl (centres unmarked) [Example 16] | 7.05 | 7.49
N#Cc1ccc(Cl)cc1-c1cc(=O)n(C(Cc2cnco2)C(=O)Nc2ccc(C(N)=O)nc2)cc1OC(F)F (centres unmarked) [Example 12] | 6.19 | 6.68
CCC(C(=O)Nc1ccc(C(N)=O)nc1)n1cc(OC)c(-c2cc(Cl)ccc2C#N)cc1=O (centres unmarked) [Example 1] | 7.66 | 7.70
COc1cn(C(Cc2cccnc2)C(=O)Nc2ccc(C(N)=O)nc2)c(=O)cc1-c1cc(Cl)ccc1C#N (centres unmarked) [Example 8] | 8.22 | 7.96
N#Cc1ccc(Cl)cc1-c1cc(=O)n(C(Cc2cocn2)C(=O)Nc2ccc(C(N)=O)nc2)cc1Cl (centres unmarked) [Example 10] | 6.33 | 6.68
N#Cc1ccc(Cl)cc1-c1cc(=O)n(C(C[C@@H]2CCCCO2)C(=O)Nc2ccc(C(N)=O)nc2)cc1Cl (some centres unmarked) [Example 4] | 6.85 | 7.80
CCC(C(=O)Nc1ccc(C(=O)NC)nc1)n1cc(OC)c(-c2cc(Cl)ccc2C#N)cc1=O (centres unmarked) [Example 2] | 7.80 | 7.70
